Measured values: patent US9981964B2 (Agency for Science, Technology and Research, priority 2013, dated 2018)

System: HEK293-STF3A cells
Assay: STF3A assay (STF luciferase reporter in Wnt3A-expressing HEK293 cells)
Format: cell-based
Conditions: Homo sapiens, 24 h, 1 day of treatment
From the text: HEK293-STF cell line was modified from Human embryonic kidney cell line HEK293 transfected with the STF reporter. HEK293-STF3A cell line was further modified from HEK293-STF cell line to express Wnt3A. This cell line was used to identify compounds that regulate either early or late signaling components of the Wnt pathway. These two cell lines were obtained from David Virshup's laboratory, Duke-NUS. L-Wnt3A (ATCC, #CRL-2647) cell line was used for providing Wnt3A conditioned media. The three cell lines were grown in DMEM with 10% FBS incubated in 37° C. with 5% CO2.
2×10^4 HEK293-STF3A cells in 75 μl culture media were seeded in each well of white 96 well plates (Greiner #655098) and incubated overnight at 37° C. 25 μl serially diluted compound was added to the cells to give final concentration of 50 μM to 1.5 nM. After 1 day of treatment, 100 μl of Steady-Glo Luciferase Assay reagent (#E2520, Promega) was added to each well and incubated for 10 minutes at room temperature. Luminescence was measured using Tecan Safire2 plate reader.

## Cc1ccc(-c2ccc(NC(=O)CN3CCCC4=C3C(=O)N(C)C4=O)cn2)cn1 [Compound 24, 2-(6-methyl-5,7-dioxo-2,3,4,5,6,7-hexahydro-1H-pyrrolo[3,4-b]pyridin-1-yl)-N-(6′-methyl-[2,3′-bipyridin]-5-yl)acetamide]
  IC50: < 0.1 µM

## COc1ccc(-c2ccc(NC(=O)CN3CCCC4=C3C(=O)N(C3CC3)C4=O)nc2)nc1 [Compound 130, 2-(6-cyclopropyl-5,7-dioxo-2,3,4,5,6,7-hexahydro-1H-pyrrolo[3,4-b]pyridin-1-yl)-N-(5-methoxy-[2,3′-bipyridin]-6′-yl)acetamide]
  IC50: < 0.1 µM

## COc1cncc(-c2ccc(NC(=O)CN3CCCC4=C3C(=O)N(C3CC3)C4=O)cn2)c1 [Compound 144, 2-(6-cyclopropyl-5,7-dioxo-2,3,4,5,6,7-hexahydro-1H-pyrrolo[3,4-b]pyridin-1-yl)-N-(5′-methoxy-2,3′-bipyridin-5-yl)acetamide]
  IC50: < 0.1 µM

## CC(C(=O)Nc1ccc(-c2cccnc2)nc1)N1CCCC2=C1C(=O)N(C)C2=O (centres unmarked) [Compound 20, N-([2,3′-bipyridin]-5-yl)-2-(6-methyl-5,7-dioxo-2,3,4,5,6,7-hexahydro-1H-pyrrolo[3,4-b]pyridin-1-yl)propanamide]
  IC50: < 0.1 µM

## C[C@H](C(=O)Nc1ccc(-c2ccccc2)nn1)N1CCCC2=C1C(=O)N(C)C2=O (single isomer, unassigned) [Compound 95]
  IC50: > 10 µM

## CN1C(=O)C2=C(C1=O)N(CC(=O)Nc1ccc(-c3ccncn3)cc1)CCC2 [Compound 73, 2-(6-methyl-5,7-dioxo-2,3,4,5,6,7-hexahydro-1H-pyrrolo[3,4-b]pyridin-1-yl)-N-(4-(pyrimidin-4-yl)phenyl)acetamide]
  IC50: > 10 µM

## Cc1cncc(-c2ccc(NC(=O)CN3CCCC4=C3C(=O)N(C)C4=O)cn2)c1 [Compound 149, 2-(6-methyl-5,7-dioxo-2,3,4,5,6,7-hexahydro-1H-pyrrolo[3,4-b]pyridin-1-yl)-N-(5′-methyl-[2,3′-bipyridin]-5-yl)acetamide]
  IC50: < 0.1 µM

## CN1C(=O)C2=C(C1=O)N(CC(=O)Nc1ccc(-c3cnccn3)cc1)CCC2 [Compound 118, 2-(6-methyl-5,7-dioxo-2,3,4,5,6,7-hexahydro-1H-pyrrolo[3,4-b]pyridin-1-yl)-N-(4-(pyrazin-2-yl)phenyl)acetamide]
  IC50: < 0.1 µM

## O=C(CN1CCCC2=C1C(=O)N(C1CC1)C2=O)Nc1ccc(-c2ccc(F)nc2)nc1 [Compound 124, 2-(6-cyclopropyl-5,7-dioxo-2,3,4,5,6,7-hexahydro-1H-pyrrolo[3,4-b]pyridin-1-yl)-N-(6′-fluoro-[2,3′-bipyridin]-5-yl)acetamide]
  IC50: < 0.1 µM

## C[C@@H](C(=O)Nc1ccc(-c2cccnc2)nc1)N1CCCC2=C1C(=O)N(C)C2=O (single isomer, unassigned) [Compound 116]
  IC50: < 0.1 µM

## CN1C(=O)C2=C(C1=O)N(CC(=O)Nc1ccc(-c3ccccc3)cc1)CCC2 [Compound 70, N-([1,1′-biphenyl]-4-yl)-2-(6-methyl-5,7-dioxo-2,3,4,5,6,7-hexahydro-1H-pyrrolo[3,4-b]pyridin-1-yl)acetamide]
  IC50: < 0.1 µM

## Cc1ccc(-c2ccc(NC(=O)CN3CCCC4=C3C(=O)N(C3CC3)C4=O)cn2)cn1 [Compound 44, 2-(6-cyclopropyl-5,7-dioxo-2,3,4,5,6,7-hexahydro-1H-pyrrolo[3,4-b]pyridin-1-yl)-N-(6′-methyl-[2,3′-bipyridin]-5-yl)acetamide]
  IC50: < 0.1 µM

## Cc1nc(NC(=O)CN2CCCC3=C2C(=O)N(C)C3=O)ccc1-c1cccnc1 [Compound 112]
  IC50: < 10 µM

## CN1C(=O)C2=C(C1=O)N(CC(=O)Nc1ccc(-c3ccc(F)nc3)nc1)CCC2 [Compound 108, N-(6′-fluoro-[2,3′-bipyridin]-5-yl)-2-(6-methyl-5,7-dioxo-2,3,4,5,6,7-hexahydro-1H-pyrrolo[3,4-b]pyridin-1-yl)acetamide]
  IC50: < 1 µM

## CN1C(=O)C2=C(C1=O)N(CC(=O)Nc1ccc(-c3ccncc3)nn1)CCC2 [Compound 71, 2-(6-methyl-5,7-dioxo-2,3,4,5,6,7-hexahydro-1H-pyrrolo[3,4-b]pyridin-1-yl)-N-(6-(pyridin-4-yl)pyridazin-3-yl)acetamide]
  IC50: < 1 µM

## O=C(CN1CCCC2=C1C(=O)N(C1CC1)C2=O)Nc1ccc(-c2cccnc2F)cn1 [Compound 104, 2-(6-cyclopropyl-5,7-dioxo-2,3,4,5,6,7-hexahydro-1H-pyrrolo[3,4-b]pyridin-1-yl)-N-(2′-fluoro-[3,3′-bipyridin]-6-yl)acetamide]
  IC50: < 0.1 µM

## O=C(CN1CCCC2=C1C(=O)N(C1CC1)C2=O)Nc1cc(F)c(-c2cccnc2)cn1 [Compound 151, 2-(6-cyclopropyl-5,7-dioxo-2,3,4,5,6,7-hexahydro-1H-pyrrolo[3,4-b]pyridin-1-yl)-N-(4-fluoro-3,3′-bipyridin-6-yl)acetamide]
  IC50: < 0.1 µM

## Cc1cncc(-c2ccc(NC(=O)CN3CCCC4=C3C(=O)N(C)C4=O)nc2)n1 [Compound 129, 2-(6-methyl-5,7-dioxo-2,3,4,5,6,7-hexahydro-1H-pyrrolo[3,4-b]pyridin-1-yl)-N-(5-(6-methylpyrazin-2-yl)pyridin-2-yl)acetamide]
  IC50: < 0.1 µM

## Cc1cccc(-c2ccc(NC(=O)CN3CCCC4=C3C(=O)N(C)C4=O)nc2)n1 [Compound 34, 2-(6-methyl-5,7-dioxo-2,3,4,5,6,7-hexahydro-1H-pyrrolo[3,4-b]pyridin-1-yl)-N-(6-methyl-[2,3′-bipyridin]-6′-yl)acetamide]
  IC50: < 0.1 µM

## CC(C(=O)Nc1cnc(-c2cccnc2)cn1)N1CCCC2=C1C(=O)N(C)C2=O (centres unmarked) [Compound 23, 2-(6-methyl-5,7-dioxo-2,3,4,5,6,7-hexahydro-1H-pyrrolo[3,4-b]pyridin-1-yl)-N-(5-(pyridin-3-yl)pyrazin-2-yl)propanamide]
  IC50: < 0.1 µM

## Cc1cc(NC(=O)CN2CCCC3=C2C(=O)N(C)C3=O)ccc1-c1ccccc1 [Compound 82, 2-(6-methyl-5,7-dioxo-2,3,4,5,6,7-hexahydro-1H-pyrrolo[3,4-b]pyridin-1-yl)-N-(2-methyl-[1,1′-biphenyl]-4-yl)acetamide]
  IC50: < 0.1 µM

## O=C(CN1CCCC2=C1C(=O)N(C1CC1)C2=O)Nc1ccc(-c2cncc(C(F)F)c2)nn1 [Compound 61]
  IC50: < 0.1 µM

## CN1C(=O)C2=C(C1=O)N(CC(=O)Nc1ccc(-c3cccnc3)cc1)CCC2 [Compound 77, 2-(6-methyl-5,7-dioxo-2,3,4,5,6,7-hexahydro-1H-pyrrolo[3,4-b]pyridin-1-yl)-N-(4-(pyridin-3-yl)phenyl)acetamide]
  IC50: < 0.1 µM

## CC(C(=O)Nc1cnc(-c2ccccc2)cn1)N1CCCC2=C1C(=O)N(C)C2=O (centres unmarked) [Compound 19, 2-(6-methyl-5,7-dioxo-2,3,4,5,6,7-hexahydro-1H-pyrrolo[3,4-b]pyridin-1-yl)-N-(5-phenylpyrazin-2-yl)propanamide]
  IC50: < 0.1 µM

## CC(C)N1C(=O)C2=C(C1=O)N(CC(=O)Nc1ccc(-c3ccccc3)nn1)CCC2 [Compound 33, 2-(6-isopropyl-5,7-dioxo-2,3,4,5,6,7-hexahydro-1H-pyrrolo[3,4-b]pyridin-1-yl)-N-(6-phenylpyridazin-3-yl)acetamide]
  IC50: < 0.1 µM

## CC(C(=O)Nc1ccc(-c2ccccc2)nn1)N1CCCC2=C1C(=O)N(C)C2=O (centres unmarked) [Compound 13, 2-(6-methyl-5,7-dioxo-2,3,4,5,6,7-hexahydro-1H-pyrrolo[3,4-b]pyridin-1-yl)-N-(6-phenylpyridazin-3-yl)propanamide]
  IC50: < 0.1 µM
